Measured values: ChEMBL document CHEMBL1148862, “Evaluation of the anti-hepatitis C virus effect of novel potent, selective, and orally bioavailable JNK and VEGFR kinase inhibitors” (Bioorg Med Chem Lett, 2007)
Calls of active or inactive are those of the source. The calls are words filed in the database; no cut-off is given here.

How the values were obtained:
[1] = Cytotoxicity against Huh7 cells by luciferase assay; format: cell-based, Huh-7; details: human
[2] = Cytotoxicity against MT4 cells by luciferase assay; format: cell-based; details: human
Hepatitis C virus [3] = test: Antiviral activity against HCV in Huh7-Rep cells by luciferase assay; format: functional, organism-based, Hepacivirus hominis
[4] = Tmax in Swiss SPF (CD1) mouse liver at 20 mg/kg, po; format: ADME, organism-based; design: dose 20 mg/kg, route oral
[5] = Drug level in Swiss SPF (CD1) mouse heart at 20 mg/kg, po after 24 hrs; format: ADME, organism-based; design: dose 20 mg/kg, route oral; details: read-out: Drug uptake
[6] = Inhibition of HCV NS5B polymerase; design: species or system Hepacivirus hominis
[7] = Tmax in Swiss SPF (CD1) mouse plasma at 20 mg/kg, po; format: ADME, organism-based; design: dose 20 mg/kg, route oral
Hepatitis C virus [8] = test: Antiviral activity against HCV subgenomic 1a replicon upto 32 uM; format: functional, organism-based; details: Hepacivirus hominis; subtype 1a
[9] = Drug level in Swiss SPF (CD1) mouse plasma at 20 mg/kg, po after 0.5 hrs; format: ADME, organism-based; design: dose 20 mg/kg, route oral
[10] = Drug level in Swiss SPF (CD1) mouse plasma at 20 mg/kg, po after 8 hrs; format: ADME, organism-based; design: dose 20 mg/kg, route oral
[11] = AUC (0 to 8 hrs) in Swiss SPF (CD1) mouse liver at 20 mg/kg, po; format: ADME, organism-based; design: time < 8 hr, dose 20 mg/kg, route oral
Hepatitis C virus [12] = test: Antiviral activity against HCV ET replicon with NS3 E1202G, T1280I mutation and NS4B K1846 mutation; format: functional, organism-based; details: Hepacivirus hominis
[13] = Tmax in Swiss SPF (CD1) mouse heart at 20 mg/kg, po; format: ADME, organism-based; design: dose 20 mg/kg, route oral
[14] = Drug level in Swiss SPF (CD1) mouse plasma at 20 mg/kg, po after 4 hrs; format: ADME, organism-based; design: dose 20 mg/kg, route oral
[15] = target: Mitogen-activated protein kinase 10 (Homo sapiens, UniProt P53779); test: Inhibition of human JNK3
[16] = Drug level in Swiss SPF (CD1) mouse heart at 20 mg/kg, po after 1 hr; format: ADME, organism-based; design: dose 20 mg/kg, route oral; details: read-out: Drug uptake
[17] = Drug level in Swiss SPF (CD1) mouse heart at 20 mg/kg, po after 8 hrs; format: ADME, organism-based; design: dose 20 mg/kg, route oral; details: read-out: Drug uptake
[18] = AUC (0 to 8 hrs) in Swiss SPF (CD1) mouse heart at 20 mg/kg, po; format: ADME, organism-based; design: time < 8 hr, dose 20 mg/kg, route oral
[19] = Drug level in Swiss SPF (CD1) mouse liver at 20 mg/kg, po after 2 hrs; format: ADME, organism-based; design: dose 20 mg/kg, route oral; details: read-out: Drug uptake
[20] = Cmax in Swiss SPF (CD1) mouse plasma at 20 mg/kg, po; format: ADME, organism-based; design: dose 20 mg/kg, route oral
Hepatitis C virus [21] = test: Antiviral activity against HCV subgenomic 1b replicon upto 32 uM; format: functional, organism-based; details: Hepacivirus hominis; genotype 1b
[22] = Drug level in Swiss SPF (CD1) mouse heart at 20 mg/kg, po after 0.5 hrs; format: ADME, organism-based; design: dose 20 mg/kg, route oral; details: read-out: Drug uptake
[23] = AUC (0 to infinity) in Swiss SPF (CD1) mouse heart at 20 mg/kg, po; format: ADME, organism-based; design: time infinity, dose 20 mg/kg, route oral
[24] = target: Vascular endothelial growth factor receptor 3 (Homo sapiens, UniProt P35916); test: Inhibition of human VEGFR3
[25] = Drug level in Swiss SPF (CD1) mouse plasma at 20 mg/kg, po after 1 hr; format: ADME, organism-based; design: dose 20 mg/kg, route oral
[26] = target: Mitogen-activated protein kinase 9 (Homo sapiens, UniProt P45984); test: Inhibition of human JNK2
[27] = Drug level in Swiss SPF (CD1) mouse liver at 20 mg/kg, po after 0.5 hrs; format: ADME, organism-based; design: dose 20 mg/kg, route oral; details: read-out: Drug uptake
[28] = Drug level in Swiss SPF (CD1) mouse plasma at 20 mg/kg, po after 24 hrs; format: ADME, organism-based; design: dose 20 mg/kg, route oral
[29] = target: Mitogen-activated protein kinase 8 (Homo sapiens, UniProt P45983); test: Inhibition of JNK1
[30] = AUC (0 to 8 hrs) in Swiss SPF (CD1) mouse plasma at 20 mg/kg, po; format: ADME, organism-based; design: time < 8 hr, dose 20 mg/kg, route oral
[31] = Cmax in Swiss SPF (CD1) mouse heart at 20 mg/kg, po; format: ADME, organism-based; design: dose 20 mg/kg, route oral
[32] = target: Vascular endothelial growth factor receptor 2 (Homo sapiens, UniProt P35968); test: Inhibition of human VEGFR2
[33] = test system: Bovine viral diarrhea virus 1; test: Antiviral activity against BVDV upto 100 uM; format: functional, organism-based
[34] = Half life in Swiss SPF (CD1) mouse plasma at 20 mg/kg, po after 2 to 8 hrs; format: ADME, organism-based; design: dose 20 mg/kg, route oral
[35] = Drug level in Swiss SPF (CD1) mouse heart at 20 mg/kg, po after 2 hrs; format: ADME, organism-based; design: dose 20 mg/kg, route oral; details: read-out: Drug uptake
[36] = Drug level in Swiss SPF (CD1) mouse liver at 20 mg/kg, po after 8 hrs; format: ADME, organism-based; design: dose 20 mg/kg, route oral; details: read-out: Drug uptake
[37] = Half life in Swiss SPF (CD1) mouse liver at 20 mg/kg, po after 2 to 8 hrs; format: ADME, organism-based; design: dose 20 mg/kg, route oral
[38] = AUC (0 to infinity) in Swiss SPF (CD1) mouse liver at 20 mg/kg, po; format: ADME, organism-based; design: time infinity, dose 20 mg/kg, route oral
[39] = Cmax in Swiss SPF (CD1) mouse liver at 20 mg/kg, po; format: ADME, organism-based; design: dose 20 mg/kg, route oral
[40] = AUC (0 to infinity) in Swiss SPF (CD1) mouse plasma at 20 mg/kg, po; format: ADME, organism-based; design: time infinity, dose 20 mg/kg, route oral
TGF-beta receptor type-1 = target: T1, TGF-beta receptor type-1 (Homo sapiens, UniProt P36897)
T1 sequence (P36897 whole entry): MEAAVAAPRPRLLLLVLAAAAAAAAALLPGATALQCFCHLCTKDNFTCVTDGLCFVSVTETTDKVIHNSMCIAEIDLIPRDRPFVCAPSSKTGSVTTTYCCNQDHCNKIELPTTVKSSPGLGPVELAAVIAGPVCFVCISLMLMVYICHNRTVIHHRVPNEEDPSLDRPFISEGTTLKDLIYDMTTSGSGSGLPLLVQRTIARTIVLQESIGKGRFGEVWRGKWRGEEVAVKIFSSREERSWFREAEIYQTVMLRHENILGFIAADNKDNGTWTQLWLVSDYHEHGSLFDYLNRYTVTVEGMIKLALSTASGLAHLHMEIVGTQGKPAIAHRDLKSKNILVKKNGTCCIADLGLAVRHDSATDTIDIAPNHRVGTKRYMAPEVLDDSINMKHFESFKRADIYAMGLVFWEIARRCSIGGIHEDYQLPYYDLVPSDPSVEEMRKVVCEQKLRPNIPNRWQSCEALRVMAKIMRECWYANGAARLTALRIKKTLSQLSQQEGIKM

[41] = Drug level in Swiss SPF (CD1) mouse liver at 20 mg/kg, po after 1 hr; format: ADME, organism-based; design: dose 20 mg/kg, route oral; details: read-out: Drug uptake
[42] = Drug level in Swiss SPF (CD1) mouse plasma at 20 mg/kg, po after 2 hrs; format: ADME, organism-based; design: dose 20 mg/kg, route oral
[43] = Drug level in Swiss SPF (CD1) mouse liver at 20 mg/kg, po after 4 hrs; format: ADME, organism-based; design: dose 20 mg/kg, route oral; details: read-out: Drug uptake
[44] = Inhibition of HCV NS3/4A protease; design: species or system Hepacivirus hominis
[45] = Drug level in Swiss SPF (CD1) mouse heart at 20 mg/kg, po after 4 hrs; format: ADME, organism-based; design: dose 20 mg/kg, route oral; details: read-out: Drug uptake
[46] = Half life in Swiss SPF (CD1) mouse heart at 20 mg/kg, po after 2 to 8 hrs; format: ADME, organism-based; design: dose 20 mg/kg, route oral
[47] = target: Vascular endothelial growth factor receptor 1 (Homo sapiens, UniProt P17948); test: Inhibition of human VEGFR1
Vascular endothelial growth factor receptor 1, sequence (P17948 whole entry): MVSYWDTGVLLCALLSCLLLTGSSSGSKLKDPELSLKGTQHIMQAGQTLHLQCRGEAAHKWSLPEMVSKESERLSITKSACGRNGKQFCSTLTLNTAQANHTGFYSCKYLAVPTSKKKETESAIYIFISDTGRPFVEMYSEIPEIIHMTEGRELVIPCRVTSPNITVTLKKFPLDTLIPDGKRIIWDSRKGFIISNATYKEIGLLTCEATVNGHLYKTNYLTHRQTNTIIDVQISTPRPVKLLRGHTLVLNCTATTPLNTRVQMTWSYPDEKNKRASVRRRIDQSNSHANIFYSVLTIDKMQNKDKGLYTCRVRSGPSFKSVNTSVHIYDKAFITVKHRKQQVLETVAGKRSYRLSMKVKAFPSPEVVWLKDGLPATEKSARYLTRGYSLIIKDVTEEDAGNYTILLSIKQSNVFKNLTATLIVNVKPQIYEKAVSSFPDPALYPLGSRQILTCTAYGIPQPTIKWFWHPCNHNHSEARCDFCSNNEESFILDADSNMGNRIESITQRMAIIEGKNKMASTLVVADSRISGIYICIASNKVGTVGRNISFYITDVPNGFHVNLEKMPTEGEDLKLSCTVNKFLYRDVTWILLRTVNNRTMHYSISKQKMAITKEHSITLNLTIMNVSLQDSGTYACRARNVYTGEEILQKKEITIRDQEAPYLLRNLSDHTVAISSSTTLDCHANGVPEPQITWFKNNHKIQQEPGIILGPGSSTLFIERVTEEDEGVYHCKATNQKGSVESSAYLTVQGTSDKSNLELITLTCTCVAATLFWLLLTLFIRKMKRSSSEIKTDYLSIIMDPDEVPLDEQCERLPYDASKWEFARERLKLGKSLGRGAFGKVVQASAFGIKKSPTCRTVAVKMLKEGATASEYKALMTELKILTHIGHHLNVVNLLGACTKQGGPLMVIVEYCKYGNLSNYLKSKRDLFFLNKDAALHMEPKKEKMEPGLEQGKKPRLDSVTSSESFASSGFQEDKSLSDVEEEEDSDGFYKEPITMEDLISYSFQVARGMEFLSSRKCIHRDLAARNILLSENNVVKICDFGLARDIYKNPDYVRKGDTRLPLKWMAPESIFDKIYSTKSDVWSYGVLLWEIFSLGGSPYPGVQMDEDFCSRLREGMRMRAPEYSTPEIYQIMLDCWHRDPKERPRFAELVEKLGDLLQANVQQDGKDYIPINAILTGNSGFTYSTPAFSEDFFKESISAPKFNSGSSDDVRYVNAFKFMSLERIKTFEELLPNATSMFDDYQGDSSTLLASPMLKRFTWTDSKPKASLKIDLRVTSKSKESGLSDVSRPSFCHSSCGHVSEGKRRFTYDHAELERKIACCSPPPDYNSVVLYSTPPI

Mitogen-activated protein kinase 9, sequence (P45984 whole entry): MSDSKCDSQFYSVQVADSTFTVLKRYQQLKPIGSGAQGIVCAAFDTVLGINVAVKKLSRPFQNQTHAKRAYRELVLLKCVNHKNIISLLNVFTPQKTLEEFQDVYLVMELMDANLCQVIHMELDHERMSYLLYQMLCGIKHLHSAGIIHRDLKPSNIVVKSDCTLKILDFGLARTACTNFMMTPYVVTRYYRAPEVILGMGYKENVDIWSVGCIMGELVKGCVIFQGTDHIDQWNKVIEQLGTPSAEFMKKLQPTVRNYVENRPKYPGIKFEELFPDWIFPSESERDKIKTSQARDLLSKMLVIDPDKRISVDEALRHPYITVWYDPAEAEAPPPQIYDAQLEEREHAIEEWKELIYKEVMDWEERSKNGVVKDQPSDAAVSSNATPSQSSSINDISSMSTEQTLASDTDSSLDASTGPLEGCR
Mitogen-activated protein kinase 8, sequence (P45983 whole entry): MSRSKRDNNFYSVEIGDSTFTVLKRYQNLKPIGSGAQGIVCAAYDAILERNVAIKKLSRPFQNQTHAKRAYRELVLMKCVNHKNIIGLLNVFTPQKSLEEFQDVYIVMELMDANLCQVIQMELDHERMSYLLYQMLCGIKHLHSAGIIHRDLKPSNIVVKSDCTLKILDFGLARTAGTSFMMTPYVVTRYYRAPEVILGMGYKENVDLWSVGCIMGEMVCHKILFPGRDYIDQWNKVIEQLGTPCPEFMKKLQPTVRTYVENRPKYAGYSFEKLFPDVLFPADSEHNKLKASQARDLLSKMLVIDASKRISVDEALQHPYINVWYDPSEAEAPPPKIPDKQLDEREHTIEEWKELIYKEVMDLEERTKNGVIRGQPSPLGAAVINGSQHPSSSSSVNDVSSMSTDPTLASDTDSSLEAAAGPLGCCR
Vascular endothelial growth factor receptor 3, sequence (P35916 whole entry): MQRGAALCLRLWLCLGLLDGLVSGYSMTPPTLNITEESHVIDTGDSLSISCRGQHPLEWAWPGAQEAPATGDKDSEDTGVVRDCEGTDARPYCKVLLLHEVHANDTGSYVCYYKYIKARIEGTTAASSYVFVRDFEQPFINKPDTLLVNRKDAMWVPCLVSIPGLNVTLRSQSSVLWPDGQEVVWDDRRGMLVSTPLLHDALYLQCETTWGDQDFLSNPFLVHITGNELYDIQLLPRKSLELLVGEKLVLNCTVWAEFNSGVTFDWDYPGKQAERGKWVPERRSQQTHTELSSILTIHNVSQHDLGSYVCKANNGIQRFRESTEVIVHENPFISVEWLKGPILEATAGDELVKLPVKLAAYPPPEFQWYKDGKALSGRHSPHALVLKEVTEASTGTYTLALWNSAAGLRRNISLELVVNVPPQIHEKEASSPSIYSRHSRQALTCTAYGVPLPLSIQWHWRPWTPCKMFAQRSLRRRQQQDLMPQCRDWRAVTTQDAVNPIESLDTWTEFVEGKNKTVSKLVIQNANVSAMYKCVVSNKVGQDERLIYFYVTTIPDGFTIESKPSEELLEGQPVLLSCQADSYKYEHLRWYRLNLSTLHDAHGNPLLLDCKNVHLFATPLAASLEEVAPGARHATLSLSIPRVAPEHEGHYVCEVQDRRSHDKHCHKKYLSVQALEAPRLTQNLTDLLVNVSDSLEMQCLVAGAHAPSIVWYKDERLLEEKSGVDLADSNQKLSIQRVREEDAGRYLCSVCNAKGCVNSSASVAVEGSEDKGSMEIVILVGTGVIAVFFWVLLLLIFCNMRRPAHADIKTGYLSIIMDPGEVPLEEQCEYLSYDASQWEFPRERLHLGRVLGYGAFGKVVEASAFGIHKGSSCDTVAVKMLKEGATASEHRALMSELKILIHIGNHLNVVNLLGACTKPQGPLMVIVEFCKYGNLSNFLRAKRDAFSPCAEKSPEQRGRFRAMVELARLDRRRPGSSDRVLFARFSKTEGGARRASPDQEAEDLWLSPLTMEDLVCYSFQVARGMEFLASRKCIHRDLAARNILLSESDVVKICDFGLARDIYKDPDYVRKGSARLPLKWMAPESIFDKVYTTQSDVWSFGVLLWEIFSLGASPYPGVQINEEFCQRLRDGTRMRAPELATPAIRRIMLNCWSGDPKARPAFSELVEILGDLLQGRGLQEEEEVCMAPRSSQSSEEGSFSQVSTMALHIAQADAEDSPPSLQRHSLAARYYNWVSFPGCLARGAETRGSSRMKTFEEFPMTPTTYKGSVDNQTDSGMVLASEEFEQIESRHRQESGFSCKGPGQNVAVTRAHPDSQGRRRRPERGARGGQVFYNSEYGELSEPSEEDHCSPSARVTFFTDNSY
Vascular endothelial growth factor receptor 2, sequence (P35968 whole entry): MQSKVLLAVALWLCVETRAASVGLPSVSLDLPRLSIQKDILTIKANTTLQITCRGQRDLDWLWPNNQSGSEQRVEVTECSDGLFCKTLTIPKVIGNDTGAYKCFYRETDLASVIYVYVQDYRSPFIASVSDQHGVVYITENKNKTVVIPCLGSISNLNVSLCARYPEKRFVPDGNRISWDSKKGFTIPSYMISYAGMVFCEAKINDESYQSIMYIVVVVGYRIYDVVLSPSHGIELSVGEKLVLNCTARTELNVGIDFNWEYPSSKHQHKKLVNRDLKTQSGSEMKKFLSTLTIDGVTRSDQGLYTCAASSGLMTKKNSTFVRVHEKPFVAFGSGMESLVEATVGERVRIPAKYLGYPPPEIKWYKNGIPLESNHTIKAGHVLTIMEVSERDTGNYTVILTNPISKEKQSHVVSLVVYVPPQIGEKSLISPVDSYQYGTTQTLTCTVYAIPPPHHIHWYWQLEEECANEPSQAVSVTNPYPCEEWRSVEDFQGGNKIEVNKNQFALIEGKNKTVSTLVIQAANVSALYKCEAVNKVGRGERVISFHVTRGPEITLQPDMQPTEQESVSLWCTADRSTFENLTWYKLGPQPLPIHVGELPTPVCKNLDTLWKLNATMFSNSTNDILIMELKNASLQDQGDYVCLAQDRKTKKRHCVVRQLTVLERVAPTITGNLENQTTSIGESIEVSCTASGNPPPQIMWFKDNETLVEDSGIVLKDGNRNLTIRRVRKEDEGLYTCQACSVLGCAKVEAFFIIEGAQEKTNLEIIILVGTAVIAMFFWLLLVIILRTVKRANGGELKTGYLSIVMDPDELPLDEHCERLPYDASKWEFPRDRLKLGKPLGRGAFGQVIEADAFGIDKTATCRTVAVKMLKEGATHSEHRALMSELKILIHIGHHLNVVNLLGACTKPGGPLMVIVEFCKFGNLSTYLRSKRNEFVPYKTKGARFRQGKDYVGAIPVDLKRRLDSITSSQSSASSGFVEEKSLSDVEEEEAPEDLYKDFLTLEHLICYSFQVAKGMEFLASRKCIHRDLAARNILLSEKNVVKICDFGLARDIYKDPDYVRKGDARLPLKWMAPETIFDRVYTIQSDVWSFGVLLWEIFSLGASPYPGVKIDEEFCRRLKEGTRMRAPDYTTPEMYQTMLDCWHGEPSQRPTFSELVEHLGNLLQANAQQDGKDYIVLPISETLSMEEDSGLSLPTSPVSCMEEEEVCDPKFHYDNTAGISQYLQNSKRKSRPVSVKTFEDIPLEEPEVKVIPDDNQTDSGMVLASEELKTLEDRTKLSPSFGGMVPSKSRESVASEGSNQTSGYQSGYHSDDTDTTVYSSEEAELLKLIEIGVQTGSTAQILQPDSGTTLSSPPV

Fc1ccccc1-c1nc(Nc2ccncc2)c2nccnc2n1
CC50 [1]: > 25 µM
CC50 [2]: > 25 µM
EC50 (Hepatitis C virus [3]): 9950 nM

Clc1cccc(-c2nc(Nc3ccncc3)c3nccnc3n2)c1
CC50 [1]: > 32 µM
CC50 [2]: > 32 µM
EC50 (Hepatitis C virus [3]): 1670 nM

COc1cnc(-c2cc(Cl)ccc2F)nc1Nc1ccncc1C(=O)NCCCN1CCCC1=O
CC50 [1]: 17.7 µM
CC50 [2]: 5.8 µM
EC50 (Hepatitis C virus [3]): 84 nM

Fc1ccc(Br)cc1-c1nc(N(CCc2ccccc2)c2ccncc2)c2nccnc2n1
CC50 [1]: 22.2 µM
CC50 [2]: 11 µM
EC50 (Hepatitis C virus [3]): 1960 nM

O=C(NCCCN1CCCC1=O)c1cnccc1Nc1nc(-c2cc(Br)ccc2F)nc2nccnc12
Tmax [4]: 30 min
concentration at 24 h [5]: 5 ng/mL
IC50 [6]: > 30 µM
Tmax [7]: 30 min
Activity (Hepatitis C virus [8]): inactive
concentration at 0.5 h [9]: 220 ng/mL
concentration at 8 h [10]: 5.52 ng/mL
AUC(0-t) at 8 h [11]: 6960 ng·h/mL
Activity (Hepatitis C virus [12]): Active
Tmax [13]: 30 min
concentration at 4 h [14]: 20.3 ng/mL
IC50 [15]: 59 nM
concentration at 1 h [16]: 557 ng/mL
concentration at 8 h [17]: 29.1 ng/mL
AUC(0-t) at 8 h [18]: 1120 ng·h/mL
concentration at 2 h [19]: 611 ng/mL
Cmax [20]: 220 ng/mL
Activity (Hepatitis C virus [21]): inactive
CC50 [1]: > 32 µM
concentration at 0.5 h [22]: 678 ng/mL
AUC(0-inf) [23]: 1260 ng·h/mL
CC50 [2]: > 32 µM
IC50 [24]: 123 nM
concentration at 1 h [25]: 166 ng/mL
IC50 [26]: 37 nM
concentration at 0.5 h [27]: 4060 ng/mL
concentration at 24 h [28]: < 0.5 ng/mL
IC50 [29]: 10.5 µM
AUC(0-t) at 8 h [30]: 309 ng·h/mL
Cmax [31]: 678 ng/mL
IC50 [32]: 140 nM
Activity [33]: inactive
half-life [34]: 174 min
concentration at 2 h [35]: 92.9 ng/mL
concentration at 8 h [36]: 201 ng/mL
half-life [37]: 210 min
AUC(0-inf) [38]: 7970 ng·h/mL
Cmax [39]: 4060 ng/mL
AUC(0-inf) [40]: 332 ng·h/mL
IC50 (TGF-beta receptor type-1): 3.2 nM
EC50 (Hepatitis C virus [3]): 64 nM
concentration at 1 h [41]: 2940 ng/mL
concentration at 2 h [42]: 21.7 ng/mL
concentration at 4 h [43]: 627 ng/mL
IC50 [44]: > 30 µM
concentration at 4 h [45]: 83.6 ng/mL
half-life [46]: 204 min
IC50 [47]: 47 nM

Cc1cc(Nc2nc(-c3cc(Br)ccc3F)nc3nccnc23)ccn1
CC50 [1]: 12.9 µM
CC50 [2]: 13.2 µM
EC50 (Hepatitis C virus [3]): 3600 nM

COc1cnc(-c2cc(Cl)ccc2F)nc1Nc1ccncc1C(=O)NC1CCN(C(=O)OC(C)(C)C)CC1
CC50 [1]: 4 µM
CC50 [2]: 3.9 µM
EC50 (Hepatitis C virus [3]): 1000 nM

COc1cnc(-c2cc(Cl)ccc2F)nc1Nc1ccncc1C(=O)NCCCN1CCOCC1
CC50 [1]: 17.1 µM
CC50 [2]: 15.4 µM
EC50 (Hepatitis C virus [3]): 2500 nM
